From US11179465B2, “Topical compositions comprising a corticosteroid” (PRIMUS PHARMACEUTICALS, INC., priority 2014, dated 2021)

What was measured:
HPA axis = details: topical; cited from earlier work
[1] = Plasma concentrations of clobetasol propionate (PK blood samples); assay type: in vivo, human
Method: These investigational products were applied twice daily to all affected areas on the body excluding face, scalp, groin, axillae and other intertriginous areas. The subjects had 20 to 50% BSA treated to achieve maximal use exposure. The subjects were visited Screening, Baseline (Day 1), Day 8, Day 15 and Day 43 (if needed to confirm recovery). Clinical determinations of disease severity was conducted using the Investigator Global Assessment (IGA) for overall severity at each visit. Subjects were tested for HPA axis function using the ACTH stimulation test (i.e., a cosyntropin i.v. or i.m. injection) at the Screening Visit (at least 14 days and no more than 28 days prior to Baseline) and at Day 15. In addition, blood samples for serum dehydroepiandrosterone sulfate (DHEAS) was taken at Screening, on Day 8 and at the time of the ACTH stimulation test on Day 15 (pre-test sample) as a secondary measure of HPA axis suppression. At the time of the screening ACTH stimulation test, a PK blood sample was taken to obtain a baseline value (PK screening sample). On Day 15, subjects were applied the last dose of study product at the clinic up to 60 minutes after a pre-treatment PK blood sample was taken (0 hour-Day 15). PK blood samples was then collected at 1, 3 and 6 hours (±5 minutes) after application of the study product.
Subjects had applied study product to all affected areas except the face, scalp, groin, axillae and other intertriginous areas. The target dose was at least 5 to 7 g per day (1 teaspoon of cream, twice daily, applied at approximately 1 mg/cm2 on 20% BSA—3000 cm2). All baseline affected areas and newly affected areas have been treated until the end of the study even if cleared. The investigator had marked the affected areas (in the source document), updated the marking at each visit, and reminded the subjects where study product was to be applied at each visit using the marking. Study product have been applied directly onto affected areas and rubbed in gently and completely. Study product have been applied after bathing, if applicable.

[2] = Average of Post-Treatment, subjects With HPA Axis Suppression
[3] = Average of Post-Treatment, subjects Without HPA Axis Suppression
[4] = Day 15: 1 Hour, subjects With HPA Axis Suppression
[5] = Day 15: 1 Hour, subjects Without HPA Axis Suppression
[6] = Day 15: 3 Hours, subjects With HPA Axis Suppression
[7] = Day 15: 3 Hours, subjects Without HPA Axis Suppression
[8] = Day 15: 6 Hours, subjects With HPA Axis Suppression
[9] = Day 15: 6 Hours, subjects Without HPA Axis Suppression
[10] = Day 15: Pre-Treatment (0 hour), subjects With HPA Axis Suppression
[11] = Day 15: Pre-Treatment (0 hour), subjects Without HPA Axis Suppression
[12] = Screening, subjects With HPA Axis Suppression (both creams pooled)
[13] = Screening, subjects Without HPA Axis Suppression (both creams pooled)

SMILES: CCC(=O)O[C@]1(C(=O)CCl)[C@@H](C)C[C@H]2[C@@H]3CCC4=CC(=O)C=C[C@]4(C)[C@@]3(F)[C@@H](O)C[C@@]21C [Clobetasol Propionate, [17-(2′-chloroacetyl)-9-fluoro-11-hydroxy-10,13,16-trimethyl-3-oxo-6,7,8,11,12,14,15,16-octahydrocyclopenta[a]phenanthren-17-yl] propanoate]
- Lowest dose at which the HPA axis is suppressed (HPA axis): 2 grams per day
- Plasma Concentration of Clobetasol Propionate, Mean ± SD [1, 2]: 0.217123 ± 0.1537979 ng/mL
- Plasma Concentration of Clobetasol Propionate, Median [1, 2]: 0.185565 ng/mL
- Plasma Concentration of Clobetasol Propionate, Mean ± SD [1, 3]: 0.071244 ± 0.1060424 ng/mL
- Plasma Concentration of Clobetasol Propionate, Median [1, 3]: 0.03174 ng/mL
- Plasma Concentration of Clobetasol Propionate, Mean ± SD [1, 4]: 0.210873 ± 0.1962904 ng/mL
- Plasma Concentration of Clobetasol Propionate, Median [1, 4]: 0.15588 ng/mL
- Plasma Concentration of Clobetasol Propionate, Mean ± SD [1, 5]: 0.081012 ± 0.1512306 ng/mL
- Plasma Concentration of Clobetasol Propionate, Median [1, 5]: 0.03173 ng/mL
- Plasma Concentration of Clobetasol Propionate, Mean ± SD [1, 6]: 0.200668 ± 0.1260445 ng/mL
- Plasma Concentration of Clobetasol Propionate, Median [1, 6]: 0.19545 ng/mL
- Plasma Concentration of Clobetasol Propionate, Mean ± SD [1, 7]: 0.067637 ± 0.1039073 ng/mL
- Plasma Concentration of Clobetasol Propionate, Median [1, 7]: 0.033185 ng/mL
- Plasma Concentration of Clobetasol Propionate, Mean ± SD [1, 8]: 0.205386 ± 0.1474279 ng/mL
- Plasma Concentration of Clobetasol Propionate, Median [1, 8]: 0.17805 ng/mL
- Plasma Concentration of Clobetasol Propionate, Mean ± SD [1, 9]: 0.065451 ± 0.0915422 ng/mL
- Plasma Concentration of Clobetasol Propionate, Median [1, 9]: 0.03626 ng/mL
- Plasma Concentration of Clobetasol Propionate, Mean ± SD [1, 10]: 0.195691 ± 0.1507514 ng/mL
- Plasma Concentration of Clobetasol Propionate, Median [1, 10]: 0.13649 ng/mL
- Plasma Concentration of Clobetasol Propionate, Mean ± SD [1, 11]: 0.055406 ± 0.1003403 ng/mL
- Plasma Concentration of Clobetasol Propionate, Median [1, 11]: 0.02623 ng/mL
- Plasma Concentration of Clobetasol Propionate, Mean ± SD [1, 12]: 0 ± 0 ng/mL
- Plasma Concentration of Clobetasol Propionate, Median [1, 12]: 0 ng/mL
- Plasma Concentration of Clobetasol Propionate, Mean ± SD [1, 13]: 0.001282 ± 0.0075844 ng/mL
- Plasma Concentration of Clobetasol Propionate, Median [1, 13]: 0 ng/mL
- Mean plasma clobetasol levels, subjects with HPA axis suppression relative to those without ([1]; Table 8, both creams pooled): more than 3 times
